Source: US4206215A, “Antimicrobial bis-[4-(substituted-amino)-1-pyridinium]alkanes” (Sterling Drug Inc., priority 1977, dated 1980)

Tests used:
E. coli AB1932-1 = test: In vitro antibacterial activity, MIC (modified Autotiter method); assay type: cell-based, Escherichia coli; conditions: 18-20 hours at 37° C.; for MIC: Escherichia coli, AB19321, 20 h, read-out: MIC E. coli AB1932-1
Method: (§1) The antibacterial and antifungal activity of representative examples of the compounds of Formula I was determined using a modification of the Autotiter method described by Goss, et al. Applied Microbiology 16 (9) 1,414-1,416 (1968) in which a 1,000 mcg./ml. solution of the test compound is prepared. To the first cup of the Autotray is added 0.1 ml. of the test solution. Activation of the Autotiter initiates a sequence of operations by which 0.05 ml. of the test compound solution is withdrawn from the cup by a Microtiter transfer loop and diluted in 0.05 ml. of sterile water. Following this operation, 0.05 ml. of inoculated double-strength semisynthetic medium (glucose) is added automatically to each cup. The overall operation results in final drug concentrations ranging from 500 to 0.06 mcg./ml. in twofold decrements. […] The compounds were thus tested as solutions against a variety of gram positive and gram negative bacteria including Staphylococcus aureus, Proteus mirabilis, Escherichia coli, Klebsiella pneumoniae, Pseudomonas aeruginosa, Streptococcus pyogenes, and against such fungi as Aspergillus niger, Candida albicans and Trichophyton mentagrophytes.

E. coli Vogel = test: as above; assay type: cell-based, Escherichia coli; conditions: 18-20 hours at 37° C.; for MIC: Escherichia coli, 20 h, read-out: MIC E. coli Vogel
Method: as §1

E. coli 100/B22 = test: as above; assay type: cell-based, Escherichia coli; conditions: 18-20 hours at 37° C.; for MIC: Escherichia coli, 100/B22, 20 h, read-out: MIC E. coli 100/B22
Method: as §1

P. mirab. MGH-1 = test: as above; assay type: cell-based, Proteus mirabilis; conditions: 18-20 hours at 37° C.; for MIC: Proteus mirabilis, 20 h, read-out: MIC P. mirab. MGH-1
Method: as §1

K. pneum. 39645 = test: as above; assay type: cell-based, Klebsiella pneumoniae; conditions: 18-20 hours at 37° C.; for MIC: Klebsiella pneumoniae, 20 h, read-out: MIC K. pneum. 39645
Method: as §1

Ps. aerug. MGH-2 = test: as above; assay type: cell-based, Pseudomonas aeruginosa; conditions: 18-20 hours at 37° C.; for MIC: Pseudomonas aeruginosa, 20 h, read-out: MIC Ps. aerug. MGH-2
Method: as §1

A. niger 16404 = test: In vitro antifungal activity, MIC (modified Autotiter method); assay type: cell-based, Aspergillus niger; conditions: 18-20 hours at 37° C.; for MIC: Aspergillus niger, 16404, 20 h, read-out: MIC A. niger 16404
Method: as §1

S. pyogen. C203 = test: In vitro antibacterial activity, MIC (modified Autotiter method); assay type: cell-based, Streptococcus pyogenes; conditions: 18-20 hours at 37° C.; for MIC: Streptococcus pyogenes, 20 h, read-out: MIC S. pyogen. C203
Method: as §1

T. menta. 9129 = test: In vitro antifungal activity, MIC (modified Autotiter method); assay type: cell-based, Trichophyton mentagrophytes; conditions: 18-20 hours at 37° C.; for MIC: Trichophyton mentagrophytes, 20 h, read-out: MIC T. menta. 9129
Method: as §1

C. albicans Wisc. = test: as above; assay type: cell-based, Candida albicans; conditions: 18-20 hours at 37° C.; for MIC: Candida albicans, 20 h, read-out: MIC C. albicans Wisc.
Method: as §1

C. albicans 10231 = test: as above; assay type: cell-based, Candida albicans; conditions: 18-20 hours at 37° C.; for MIC: Candida albicans, 10231, 20 h, read-out: MIC C. albicans 10231
Method: as §1

S. Aureus Smith = test: In vitro antibacterial activity, MIC (modified Autotiter method); assay type: cell-based, Staphylococcus aureus; conditions: 18-20 hours at 37° C.; for MIC: Staphylococcus aureus, 20 h, read-out: MIC S. Aureus Smith
Method: as §1

Compound	MIC (E. coli AB1932-1) [µg/mL]	MIC (E. coli Vogel) [µg/mL]	MIC (E. coli 100/B22) [µg/mL]	MIC (P. mirab. MGH-1) [µg/mL]	MIC (K. pneum. 39645) [µg/mL]	MIC (Ps. aerug. MGH-2) [µg/mL]	MIC (A. niger 16404) [µg/mL]	MIC (S. pyogen. C203) [µg/mL]	MIC (T. menta. 9129) [µg/mL]	MIC (C. albicans Wisc.) [µg/mL]	MIC (C. albicans 10231) [µg/mL]	MIC (S. Aureus Smith) [µg/mL]	other results
CCCCCCNc1cc[n+](CCCCCCCC[n+]2ccc(NCCCCCC)cc2)cc1 [Example 32, 1,8-bis-[4-(hexylamino)-1-pyridinium]octane dibromide]	1.95	3.9	3.9	> 250	7.8	125	7.8	0.49	7.8	3.9	3.9	0.24	
CCCCCCCCCNc1cc[n+](CCCCCCCCCCCC[n+]2ccc(NCCCCCCCCC)cc2)cc1 [Example 52, 1,12-bis-[4-(nonylamino)1-pyridinium]dodecane dibromide]	7.8	3.9	3.9	3.9	3.9	3.9	15.6	1.95	1.95	7.8	7.8	1.95	
c1c[n+](CCCCCCCC[n+]2ccc(NC3CCCCC3)cc2)ccc1NC1CCCCC1 [Example 38, 1,8-bis-[4-(cyclohexylamino)-1-pyridinium]octane dibromide]	31.3	62.5	62.5	> 125	> 125	250	15.6	0.93	3.9	31.3	31.3	3.9	
CCCCCCCCCCNc1cc[n+](CCCCCCCCCCCC[n+]2ccc(NCCCCCCCCCC)cc2)cc1 [Example 69, 1,12-bis-[4-(decylamino)-1-pyridinium]dodecane dibromide]	31.3	7.8	15.6	15.6	31.3	15.6	15.6	3.9	3.9	15.6	15.6	1.95	
CCCCCCCCCCCCNc1cc[n+](CCCCCC[n+]2ccc(NCCCCCCCCCCCC)cc2)cc1 [Example 70, 1,6-bis-[4-(dodecylamino)-1-pyridinium]hexane dibromide]	> 62.5	31.3	62.5	> 62.5	> 62.5	> 62.5	62.5	7.8	7.8	31.3	15.6	7.8	
CCCCCCCCCNc1cc[n+](CCCCCCCCCC[n+]2ccc(NCCCCCCCCC)cc2)cc1 [Example 51, 1,10-bis-[4-(nonylamino)-1-pyridinium]decane dibromide]	3.9	1.95	3.9	3.9	3.9	3.9	7.8	1.95	1.95	3.9	3.9	1.95	
Fc1ccc(Nc2cc[n+](CCCCCC[n+]3ccc(Nc4ccc(F)cc4)cc3)cc2)cc1 [Example 83B, 1,6-bis-[4-(p-fluorophenylamino)-1-pyridinium]hexane dibromide]	15.6	31.3	15.6	> 125	> 125	> 62.5	31.3	7.8	31.3	31.3	31.3	15.6	
CCCCCCCCCNc1cc[n+](CCCCCC[n+]2ccc(NCCCCCCCCC)cc2)cc1 [Example 48]													MIC E. coli AB1932-1 (E. coli AB1932-1): 1.95 µg/mL; MIC E. coli Vogel (E. coli Vogel): 1.95 µg/mL; MIC E. coli 100/B22 (E. coli 100/B22): 1.95 µg/mL; MIC P. mirab. MGH-1 (P. mirab. MGH-1): 7.8 µg/mL; MIC K. pneum. 39645 (K. pneum. 39645): 3.9 µg/mL; MIC Ps. aerug. MGH-2 (Ps. aerug. MGH-2): 15.6 µg/mL; MIC A. niger 16404 (A. niger 16404): 3.9 µg/mL; MIC S. pyogen. C203 (S. pyogen. C203): 1.0 µg/mL; MIC T. menta. 9129 (T. menta. 9129): 1.0 µg/mL; MIC C. albicans Wisc. (C. albicans Wisc.): 1.95 µg/mL; MIC C. albicans 10231 (C. albicans 10231): 1.95 µg/mL; MIC S. Aureus Smith (S. Aureus Smith): 1.0 µg/mL
CCCCCCCCCCCCNc1cc[n+](CCCCCCCCCC[n+]2ccc(NCCCCCCCCCCCC)cc2)cc1 [Example 74, 1,10-bis-[4-(dodecylamino)-1-pyridinium]decane dibromide]	> 62.5	> 62.5	> 62.5	> 62.5	> 62.5	> 62.5	> 62.5	15.6	15.6	> 62.5	> 62.5	15.6	
CCCCCCCCNc1cc[n+](CCCCCCCCCCCC[n+]2ccc(NCCCCCCCC)cc2)cc1 [Example 45, 1,12-bis-[4-(octylamino)-1-pyridinium]dodecane dibromide]	1.95	1.95	1.95	1.95	1	1.95	7.8	1	1	3.9	1	0.5	
CCCCCCCCCCNc1cc[n+](CCCCCC[n+]2ccc(NCCCCCCCCCC)cc2)cc1 [Example 64B, 1,6-bis-[4-(decylamino)-1-pyridinium]hexane dibromide]	1.95	1.95	7.8	1.95	3.9	7.8	7.8	1	1	3.9	1.95	1	
CCCCCCCCCCNc1cc[n+](CCCCCCCC[n+]2ccc(NCCCCCCCCCC)cc2)cc1 [Example 66, 1,8-bis-[4-(decylamino)-1-pyridinium]octane dibromide]	7.8	1.95	3.9	7.8	3.9	7.8	15.6	1.95	1.95	15.6	7.8	1	
